Converted amounts (≈) assume the structure as drawn. “Also recorded” adds a separate entry of the source. Like-named read-outs stand apart in the source and are kept apart here. Where a SMILES comes first, the peptide text is derived from it. [ ]: non-standard residue; d: D form. Sar = CNCC(=O)O
Experiments:
[1] = tested on: New Zealand white rabbit cornea; test: In vitro transport across rabbit cornea (Ussing chamber); format: in vitro ADME
Protocol: (§1) In vitro transport of […], and GFX-LYS were carried out across the New Zealand white rabbit cornea and sclera-choroid-[…]). Rabbit eyes were obtained within 24 hr of harvesting from Pel-Freez Biologicals (Rogers, Ark.) and shipped overnight in Hank's balanced salt solution on wet ice. Eyes were used immediately upon arrival. Eyes were washed with assay buffer and cleaned from the muscle and unwanted tissues. […] The small part of the sclera left with cornea helps in mounting the cornea on Ussing chambers. For isolation of the SCRPE, anterior and posterior parts were separated by a circumferential cut at the limbus. […] After separation of the retina, the eye cup was flattened with small cuts around the globe. […] A circulating water bath was used to maintain the temperature at 37° C. during the transport study. The pH of the assay buffer was maintained at 7.4 using 95% air-5% CO2 aeration which also helps in stirring of bathing solutions. Samples were collected (200 μL) from the receiver side every 30 minute for 3 hr and the lost volume was replaced with fresh assay buffer pre-equilibrated at 37° C. GFX levels were analyzed using an LC-MS/MS assay. […] GFX concentrations in the transport study and ocular tissue samples were analyzed using a validated LC-MS/MS method. […] Chromatographic separation of GFX and the internal standard moxifloxacin was performed on Obelisc C18 column (2.1×10 mm, 3 μm). Elution of analytes was performed using linear gradient elution with mobile phase consisting of 5 mM ammonium formate (pH 3.5) and acetonitrile (pH 3.5) with a flow rate of 300 μl/min and total run time of 6 min.

[2] = tested on: New Zealand white rabbit sclera-choroid-RPE (SCRPE); test: In vitro transport across rabbit sclera-choroid-RPE (Ussing chamber); format: in vitro ADME; details: for cumulative % transport / permeability compared with GFX (in words): rabbit SCRPE
Protocol: as §1

conjunctiva = test: In vitro transport of GFX prodrugs across conjunctiva; format: in vitro ADME, Rabbit
calf cornea = test: In vitro transport of substrate cassette across normoxic and hypoxic calf cornea
Excerpt: (§2) Animals used in this study were those that were sacrificed as part of other experiments approved by the Institutional Animal Care Committee of the Colorado State University (Fort Collins) and University of Colorado Anschutz Medical campus. Hypoxic and normoxic calf eyes were obtained from the Department of Physiology, School of Veterinary Medicine, Colorado State University (Fort Collins, Colo.). Briefly, 1 day old male Holstein calves (n=4) were kept in hypobaric hypoxic chambers (PB=445 mm Hg) for 2 weeks. For control experiment, age matched calves (n=4) were kept at ambient altitude (PB=650 mm Hg) and normoxia for two weeks. Hypoxic and normoxic rat eyes were obtained from the Department of Medicine, University of Colorado Anschutz Medical campus (Aurora, Colo.). Sprague Dawley rats (n=4) were maintained in hypobaric hypoxic chambers (PB=380 mm Hg) for 6 weeks and age matched controls were kept at ambient pressure and normoxia.
(§3) In vitro transport studies across hypoxic and control calf cornea and sclera-choroid-RPE (SCRPE) were carried using cassette dosing approach. A cassette of drug transporter substrates, Gly-Sar (PEPT), valacylovir (ATB^0+), MPP^+ (OCT), and phenylacetic acid (MCT) at a concentration of 100 μM each in assay buffer was prepared. Briefly, the calf eyes were harvested immediately after euthanasia and transferred to the laboratory on ice. Upon arrival in the lab, the eyes were washed with assay buffer and cleaned from muscle and unwanted tissues. Anterior and posterior parts were separated by circumferential cut at the limbus. Vitreous was removed and the neural retina was separated from the choroid-RPE by filling the eye cup with assay buffer. The retina afloat in assay buffer was isolated and the eye cup was divided into two pieces (˜1.5×1.5 cm) of sclera-choroid-RPE. Isolated tissues were mounted on modified Ussing chambers (Navicyte, Sparks, Nev.) such that the episcleral side of SCRPE or epithelial side of cornea was facing the donor chamber and retinal side or endothelial side of the cornea was facing the receiver chamber. The chambers were filled with 1.5 ml of assay buffer at 37° C. with (donor side) or without (receiver side) the cocktail of drug transporter substrates. For the study of effect of transporter inhibitors, cocktail mixture (500 μM) of transporter inhibitors was added on both donor and acceptor sides.
(§4) During the transport study, the bathing fluids were maintained at 37° C. using circulating warm water. The pH of the fluids was maintained at pH 7.4 using 95% air-5% CO2 aeration. Samples were collected (200 μL) from receiver side every hour for 6 hours and the removed volume was replaced with fresh assay buffer pre-equilibrated to 37° C. Drug levels were analyzed using a LC-MS/MS assay. Permeation data were corrected for dilution of the receiver concentrations with sample volume replenishment.
(§5) Analyte concentrations in transport study samples were measured using LC-MS/MS method after 5-fold dilution with acetonitrile to reduce the salt concentrations. A cassette analysis method was developed for simultaneous analysis of Gly-Sar, valacylovir, and MPP Phenyl acetic acid was analyzed separately with a negative ionization method and a normal phase separation method. An API-3000 triple quadrupole mass spectrometry (Applied Biosystems, Foster City, Calif., USA) coupled with a PerkinElmer series-200 liquid chromatography (Perkin Elmer, Waltham, Mass., USA) system was used for analysis. Gly-Sar, valacylovir and MPP were separated on Supelco C-5 column (2.1×10 mm, 3 μm) using water containing 0.1% formic acid (A) and acetonitrile:methanol (50:50 v/v) containing 0.1% formic acid (B) as mobile phase. A linear gradient elution at a flow rate of 0.3 ml/min with a total run time of 9 min was employed. Phenyl acetic acid was separated in normal phase separation mode on Obelisc-N silica column (2.1×10 mm, 3 μM) using 5 mM ammonium formate at pH 3.5 (A) and acetonitrile (B) as mobile phase.

[3] = tested on: calf sclera-choroid-RPE (SCRPE); test: In vitro transport of substrate cassette across normoxic and hypoxic calf SCRPE
Excerpt: as §2, §3, §4, §5

[4] = tested on: human sclera-choroid-RPE (SCRPE); test: In vitro transport of transporter substrate cassette across human sclera-choroid-RPE
Protocol: In vitro transport studies across human cornea and sclera-choroid-RPE (SCRPE) were carried out according to previously published method using the cassette dosing approach. Briefly, cassette of drug transporter substrate including Gly-Sar (PEPT), L-tryptophan (ATB^0+), MPP^+ (OCT), and phenyl acetic acid (MCT) at concentration of 100 μM in assay buffer was prepared. Briefly, the human eyes were washed with assay buffer and cleaned from muscle and conjunctiva tissues, and anterior and posterior parts were separated by giving circumferential cut behind the limbus. Small sclera part was left with cornea, which helps in mounting of cornea on Ussing chambers. Neural retina was separated from the choroid-RPE by filling the eye cup with assay buffer, and floating retina was collected. After separation of retina, eye cup was divided into two rectangular pieces (˜1.5×1.5 cm) of sclera-choroid-RPE. Isolated tissues were mounted on modified Ussing chambers (Navicyte, Sparks, Nev.) such that the episcleral side of SCRPE or epithelial side of cornea was facing the donor chamber and retinal side or endothelial side of cornea is facing the receiver chamber. To study the effect of directionality on transport, one set of Ussing chambers mounted so that sclera side facing the donor side and another set was mounted so that choroid-RPE facing the donor side. The effect of directionality of transport across cornea was not evaluated. The chambers were filled with 1.5 ml of assay buffer with (donor side) or without (receiver side) the cocktail of drug transporter substrates. For study of effect of transporter inhibitors, cocktail mixture (500 μM) of transporter inhibitor was added on both donor and acceptor side.
During the transport study, the bathing fluids were maintained at 37° C. using a circulating warm water and pH 7.4 using 95% air-5% CO2 aeration. Samples were collected (200 μL) form receiver side every hour for 6 hr and the lost volume was compensated with fresh assay buffer pre-equilibrated at 37° C. The drug levels were analyzed using a LC-MS/MS assay. Permeation data were corrected for dilution of the receiver solution with sample volume replenishment.
Analytes concentrations in transport study samples were analyzed using LC-MS/MS method after 5-fold dilution with acetonitrile to reduce the salt concentrations. Cassette analysis method was developed for simultaneous analysis of Gly-Sar, L-tryptophan and MPP^+. Phenyl acetic acid was analyzed separately in negative ionization method and normal phase separation method. An API-3000 triple quadrupole mass spectrometry (Applied Biosystems, Foster City, Calif., USA) coupled with a PerkinElmer series-200 liquid chromatography (Perkin Elmer, Walthm, Mass., USA) system was used for analysis. Gly-Sar, L-tryptophan and MPP^+ were separated on Supelco C-5 column (2.1×10 mm, 3 μm) using water containing 0.1% formic acid (A) and acetonitrile:methanol (50:50 v/v) containing 0.1% formic acid (B) as mobile phase and a linear gradient elution at a flow rate of 0.3 ml/min with total run time of 9 min. Phenyl acetic acid was separated in normal phase separation mode using Obelisc-N silica column (2.1×10 mm, 3 μM) using 5 mM ammonium formate, pH 3.5 (A) and acetonitrile (B) as mobile phase in linear gradient mode at flow rate of 0.3 ml with total run time of 6 min. Gly-Sar, L-tryptophan, and MPP^+ were analyzed in positive ionization mode with following multiple reaction monitoring (MRM) transitions: 147→90 (Gly-Sar); 205→188 (L-tryptophan); 170→128 (MPP^+). Phenyl acetic acid was analyzed in negative ionization mode with following multiple reaction monitoring (MRM) transitions: 135→91 (Phenyl acetic acid).

Structure (SMILES) | solubility (physchem; water) | solubility (physchem; water for injection) | other results
Cc1ccc(-c2cc(C(F)(F)F)nn2-c2ccc(S(=O)(=O)NC(=O)C(N)CCCNC(=N)N)cc2)cc1 (stereo not shown) [CXB-ARG] | 35 µg/mL (≈ 65.1 µM) | 35 µg/mL (≈ 65.1 µM) | 
Cc1ccc(-c2cc(C(F)(F)F)nn2-c2ccc(S(=O)(=O)NC(=O)C(N)CC(C)C)cc2)cc1 (stereo not shown) [CXB-LEU] |  | 16 µg/mL (≈ 32.4 µM) | 
Cc1ccc(-c2cc(C(F)(F)F)nn2-c2ccc(S(=O)(=O)NC(=O)C(N)CCCCN)cc2)cc1 (stereo not shown) [CXB-LYS, 2,6-diamino-N-(4-(5-p-tolyl-3-(trifluoromethyl)-1H-pyrazol-1-yl)phenylsulfonyl)hexanamide] | 50 µg/mL (≈ 98.1 µM) | 50 µg/mL (≈ 98.1 µM) | 
Cc1ccc(-c2cc(C(F)(F)F)nn2-c2ccc(S(=O)(=O)NC(=O)CCCC(=O)O)cc2)cc1 [CXB-MCT, 5-oxo-5-(4-(5-(p-tolyl)-3-(trifluoromethyl)-1H-pyrazol-1-yl)phenylsulfonamido)pentanoic acid] |  | 620 µg/mL (≈ 1250 µM) | 
Cc1ccc(-c2cc(C(F)(F)F)nn2-c2ccc(S(=O)(=O)NC(=O)CCCN(C)C)cc2)cc1 [CXB-OCT, 4-(dimethylamino)-N-((4-(5-(p-tolyl)-3-(trifluoromethyl)-1H-pyrazol-1-yl)phenyl)sulfonyl)butanamide] |  | 3220 µg/mL (≈ 6510 µM) | 
COc1c(N2CCN(C(=O)C(N)CC(C)C)C(C)C2)c(F)cc2c(=O)c(C(=O)O)cn(C3CC3)c12 (stereo not shown) [GFX-LEU, 7-(4-(2-amino-4-methylpentanoyl)-3-methylpiperazin-1-yl)-1-cyclopropyl-6-fluoro-8-methoxy-4-oxo-1,4-dihydroquinoline-3-carboxylic acid] |  | 2160 µg/mL (≈ 4420 µM) | 
COc1c(N2CCN(C(=O)C(N)CCCCN)C(C)C2)c(F)cc2c(=O)c(C(=O)O)cn(C3CC3)c12 (stereo not shown) [GFX-LYS, 1-cyclopropyl-7-(4-(2,6-diaminohexanoyl)-3-methylpiperazin-1-yl)-6-fluoro-8-methoxy-4-oxo-1,4-dihydroquinoline-3-carboxylic acid] | 48000 µg/mL (≈ 95300 µM) | 48000 µg/mL (≈ 95300 µM) | cumulative % transport / permeability compared with GFX (in words) [1]: not significantly different from GFX; cumulative % transport / permeability compared with GFX (in words) [2]: not significantly different from GFX
COc1c(N2CCNC(C)C2)c(F)cc2c(=O)c(C(=O)NCCCC(=O)O)cn(C3CC3)c12 (stereo not shown) [GFX-MCT, 4-(1-cyclopropyl-6-fluoro-8-methoxy-7-(3-methylpiperazin-1-yl)-4-oxo-1,4-dihydroquinoline-3-carboxamido)butanoic acid] |  | 3010 µg/mL (≈ 6540 µM) | cumulative % transport / permeability compared with GFX (in words) [1]: significantly (p<0.01) higher than GFX; cumulative % transport compared with GFX (in words) (conjunctiva): significantly (p<0.01) higher than GFX; transport in presence of nicotinic acid (competitive inhibitor of MCT) (conjunctiva): significantly inhibited; also recorded: only inhibited by nicotinic acid across conjunctiva; transport in presence of nicotinic acid (competitive inhibitor of MCT) ([2]; SCRPE): not across SCRPE; cumulative % transport / permeability compared with GFX (in words) [2]: significantly (p<0.01) higher than GFX
CN(CC(=O)O)C(=O)CN [Gly-Sar] (H-Gly-[Sar]-OH) |  |  | apparent permeability (Papp) across hypoxic vs normoxic tissue (in words) (calf cornea): significantly higher across normoxic cornea than hypoxic cornea; apparent permeability (Papp) across hypoxic vs normoxic tissue (in words) [3]: significantly higher across normoxic SCRPE than hypoxic SCRPE; sclera to retina transport higher than retina to sclera transport [4]: 1.6-2.0 fold
N[C@@H](Cc1c[nH]c2ccccc12)C(=O)O [L-tryptophan] |  |  | sclera to retina transport higher than retina to sclera transport ([4]; human, 6 h, 100 μM, pH 7.4): 1.6-2.0 fold
